Assay results: ChEMBL document CHEMBL1201862, “PubChem BioAssay data set” (2004)
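1) Cells in 96-well plates. 2) Compound, 48 h, 5 concentrations. 3) Linear interpolation between surrounding doses. 4) Unreached endpoint = highest concentration. At the GI50, growth is halved.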 Active and inactive are the calls of the source. Cut-off read from the data, not from the text of the source: active = GI50 up to about 1.1 µM and inactive = higher.

How the values were obtained:
Assay in all cases: inhibition of tumour cell growth, NCI panel, 48 h
[1] = system: UACC-62
[2] = system: DLD-1
[3] = system: HT-29
[4] = system: M14
[5] = system: Malme-3M
[6] = system: LXFL 529
[7] = system: OVCAR-5
[8] = system: SNB-19
[9] = system: HOP-18
[10] = system: LOX IMVI
[11] = system: OVCAR-8
[12] = system: RXF 631
[13] = system: SNB-75
[14] = system: KM-20L2
[15] = system: SF-295
[16] = system: A549
[17] = system: OVCAR-4
[18] = system: RXF 393
[19] = system: OVCAR-3
[20] = system: HL-60
[21] = system: SK-MEL-2
[22] = system: HOP-62
[23] = system: SNB-78
[24] = system: UO-31
[25] = system: SF-539
[26] = system: EKVX
[27] = system: CAKI-1
[28] = system: HCT-15
[29] = system: NCI-H226
[30] = system: KM12
[31] = system: ACHN
[32] = system: SN12C
[33] = system: NCI-H522
[34] = system: K562
[35] = system: UACC-257
[36] = system: HOP-92
[37] = system: COLO 205
[38] = system: SF-268
[39] = system: HCT-116
[40] = system: DMS-273
[41] = system: U-251
[42] = system: NCI-H23
[43] = system: M19-MEL
[44] = system: SW-620
[45] = system: TK-10
[46] = system: SK-MEL-28
[47] = system: DMS-114
[48] = system: A498
[49] = system: 786-0
[50] = system: IGROV-1
[51] = system: HCC 2998
[52] = system: SK-MEL-5
[53] = system: NCI-H460

O=c1/c(=C/c2cccc3ccccc23)sc2nc3ccccc3n12
GI50 [1]: > 100 µM (inactive)
GI50 [2]: > 100 µM (inactive)
GI50 [3]: > 100 µM (inactive)
GI50 [4]: > 100 µM (inactive)
GI50 [5]: > 100 µM (inactive)
GI50 [6]: > 100 µM (inactive)
GI50 [7]: > 100 µM (inactive)
GI50 [8]: > 100 µM (inactive)
GI50 [9]: > 100 µM (inactive)
GI50 [10]: > 100 µM (inactive)
GI50 [11]: > 100 µM (inactive)
GI50 [12]: > 100 µM (inactive)
GI50 [13]: 71.9 µM (inactive)
GI50 [14]: > 100 µM (inactive)
GI50 [15]: > 100 µM (inactive)
GI50 [16]: > 100 µM (inactive)
GI50 [17]: > 100 µM (inactive)
GI50 [18]: > 100 µM (inactive)
GI50 [19]: > 100 µM (inactive)
GI50 [20]: > 100 µM (inactive)
GI50 [21]: > 100 µM (inactive)
GI50 [22]: > 100 µM (inactive)
GI50 [23]: > 100 µM (inactive)
GI50 [24]: > 100 µM (inactive)
GI50 [25]: > 100 µM (inactive)
GI50 [26]: > 100 µM (inactive)
GI50 [27]: > 100 µM (inactive)
GI50 [28]: > 100 µM
GI50 [29]: > 100 µM (inactive)
GI50 [30]: > 100 µM (inactive)
GI50 [31]: > 100 µM (inactive)
GI50 [32]: > 100 µM (inactive)
GI50 [33]: > 100 µM (inactive)
GI50 [34]: > 100 µM (inactive)
GI50 [35]: > 100 µM (inactive)
GI50 [36]: > 100 µM (inactive)
GI50 [37]: > 100 µM (inactive)
GI50 [38]: > 100 µM (inactive)
GI50 [39]: > 100 µM (inactive)
GI50 [40]: > 100 µM (inactive)
GI50 [41]: > 100 µM (inactive)
GI50 [42]: > 100 µM (inactive)
GI50 [43]: > 100 µM (inactive)
GI50 [44]: > 100 µM (inactive)
GI50 [45]: > 100 µM (inactive)
GI50 [46]: > 100 µM (inactive)
GI50 [47]: > 100 µM (inactive)
GI50 [48]: > 100 µM (inactive)
GI50 [49]: > 100 µM (inactive)
GI50 [50]: > 100 µM (inactive)
GI50 [51]: > 100 µM (inactive)
GI50 [52]: > 100 µM (inactive)
GI50 [53]: > 100 µM (inactive)
